Consider five compounds from paper PMC3066543, “Procyanidins are potent inhibitors of LOX-1: a new player in the French Paradox” (Proceedings of the Japan Academy. Series B, Physical and …, 2011).

The target of one series is T1, human LOX-1 (Homo sapiens, UniProt P78380).
T1 construct: expressed in transfected cells; host or cells: CHO-K1 (LOX-1-CHO), doxycycline-induced
Nature of the series: DiI-oxLDL binding to LOX-1-CHO cells (4 ℃, 45 min). The class given is cell-based. The procedure: Tetracycline-inducible human LOX-1 (tagged with V5-6×His at C-terminus) expressing CHO-K1 (LOX-1-CHO) cells were maintained as previously described.[8]) The cells were seeded in 96-well plate at 10^4 cells/well in the presence of doxycycline (1 µg/mL) (Calbiochem, La Jolla, CA, USA) and were incubated in Ham’s F-12 medium containing 10% FBS at 37 ℃ for 24 h. After being washed with the medium without FBS, the cells were treated with foodstuff extracts or an anti-LOX-1 antibody at the final concentration of 10 µg/mL for 1 h. […] After washing, the cells were fixed with 10% formalin, and were stained with 4′,6-diamidino-2-phenylindole (DAPI) (Sigma, St. Louis, MO, USA). The binding of DiI-oxLDL to LOX-1-CHO cells were determined similarly to the uptake assay, except that the incubation of DiI-oxLDL was performed at 4 ℃ for 45 min. The samples were subjected to fluorescence microscopic analysis (Axiovert 200M, Zeiss, Oberkochen, Germany) or quantitative fluorescence analysis using the IN Cell analyzer system (GE Healthcare, Fairfield, CT, USA). Cell-associated DiI-oxLDL was determined as a ratio of DiI-oxLDL fluorescence intensity per cell in the presence of foodstuff extracts to that in the absence of extracts. All experiments were conducted in more than triplicates. For the determination of fluorescence quenching by procyanidins, the fluorescence was also measured before washing out unbound DiI-oxLDL (Spectramax, Molecular Devices, Sunnyvale, CA, USA). The final concentration of DMSO was less than 0.1% of total volume.

The nature of series [1]: Plasma concentrations of procyanidin B2 and C1 in rats given OPC. It is filed as in vivo. To be noted: male, stroke-prone spontaneously hypertensive (SHR-SP), rat, po, 0.5 % (w/v) OPC in drinking saline, rats given 0.5% OPC orally in drinking saline for two days, sampled 7:00–8:00. The procedure:
All protocols were approved by the Institutional Animal Care and Use Committee of the National Cerebral and Cardiovascular Center. Animals were individually housed at 23 ± 2 ℃ with 12 h light-dark cycles (7:00–19:00 light-on). Eight-week-old male stroke-prone spontaneously hypertensive rats (SHR-SP) (CLEA Japan, Tokyo, Japan) were divided into two groups (n = 8 each) with similar blood pressure, heart rates and body weights (tail cuff and pulse transducer system, BP-98A, Softron, Tokyo, Japan). They were given high fat diet without cholic acid or vitamin E (CLEA Japan, Tokyo, Japan) and physiological saline as drinking water for 2 weeks. Half of the rats received physiological saline containing 0.5%(w/v) oligomeric procyanidins (OPC) with various chain lengths purified from apples. At the end of the study, the rats were euthanized with isoflurane inhalation and blood was collected from vena cava between 11:00–14:00. The rats were perfused systemically with physiological saline for Oil Red O staining. Total cholesterol, high-density lipoprotein (HDL) cholesterol, triglyceride, and thiobarbituric acid reactive substance (TBARS) were determined enzymatically using commercially available kits (Wako Pure Chemical Industries, Osaka, Japan; Zeptometrix corporation, Buffalo, NY, USA). […]

The IC50 is the concentration needed to halve the response being measured. Read a high IC50 as lower potency. In the case of `Oc1cc(O)c2c(c1)OC(c1ccc(O)c(O)c1)C(O)C2c1c(O)cc2c(c1O)C(c1c(O)cc(O)c3c1OC(c1ccc(O)c(O)c1)C(O)C3)C(O)C(c1ccc(O)c(O)c1)O2` (stereo not drawn) [epicatechin(4β-6)epicatechin(4β-8)catechin], the IC50 at human LOX-1 (DiI-oxLDL 10 µg/mL) is 54.2 nM.
As for `Oc1cc(O)c2c(c1)O[C@H](c1ccc(O)c(O)c1)[C@H](O)[C@H]2c1c(O)cc(O)c2c1O[C@H](c1ccc(O)c(O)c1)[C@H](O)C2` [procyanidin B2, epicatechin(4β-8)epicatechin], the concentration at 2 days in series [1] was 7.9 ± 1.8 ng/mL.
Turning to `Oc1cc(O)c2c(c1)OC(c1ccc(O)c(O)c1)C(O)C2c1c(O)cc2c(c1O)C(c1c(O)cc(O)c3c1OC(c1ccc(O)c(O)c1)C(O)C3)C(O)C(c1ccc(O)c(O)c1)O2` (stereo not drawn) [epicatechin(4β-6)epicatechin(4β-8)epicatechin], at human LOX-1 (DiI-oxLDL 10 µg/mL), the half-maximal inhibitory concentration (IC50) was 84.2 nM.
Regarding `Oc1cc(O)c2c(c1)O[C@H](c1ccc(O)c(O)c1)[C@H](O)[C@H]2c1c(O)cc(O)c2c1O[C@H](c1ccc(O)c(O)c1)[C@H](O)[C@H]2c1c(O)cc(O)c2c1O[C@H](c1ccc(O)c(O)c1)[C@H](O)C2` [procyanidin C1, epicatechin(4β-8)epicatechin(4β-8)epicatechin], the “fluorescence of DiI-oxLDL in LOX-1-CHO cells (binding, microscopy)” value on human LOX-1 (300 ng/mL, DiI-oxLDL 10 µg/mL, Fig. 4A) was “significantly attenuated”. Besides, the IC50 is 8.08 nM at human LOX-1 (DiI-oxLDL 1 µg/mL, data not shown); 30 nM at human LOX-1 (DiI-oxLDL 3 µg/mL, data not shown); 58.8 nM at human LOX-1 (DiI-oxLDL 10 µg/mL). For the same compound, the concentration at 2 days in series [1] was found to be 4.9 ± 1.9 ng/mL.
On to `Oc1cc(O)c2c(c1)OC(c1ccc(O)c(O)c1)C(O)C2c1c(O)cc(O)c2c1OC(c1ccc(O)c(O)c1)C(O)C2c1c(O)cc(O)c2c1OC(c1ccc(O)c(O)c1)C(O)C2` (stereo not drawn) [epicatechin(4β-8)epicatechin(4β-8)catechin], for which the IC50 on human LOX-1 (DiI-oxLDL 10 µg/mL) was 47.3 nM.
